Read-outs that look alike come from different tables or passages of the source.
Legend:
Reserpine ptosis = test: Antiptotic action (Reserpine antagonism); type: in vivo, female albino mice NMRI; settings: Mus musculus
Method: (§1) All the experiments are carried out on female albino mice NMRI of 20 to 30 g body weight. 5 to 20 animals are employed per dose and the dose/response relationship are determined.
Antiptotic action (Reserpine antagonism)
Subcutaneous administration of 2 mg/kg of reserpine to albino mice causes ptosis in the course of several hours [Reserpine Ptosis, Domenjoz and Theobald (1959), Arch, Int. Pharmacodyn. 120,450]. The test substances are administered to the animals orally in various doses 3 hours before the administration of reserpine. The intensity of ptosis is graded by a rating scale 3-2-1-0 (complete, moderate, slight, no ptosis) in the 2nd, 3rd and 4th hour after administration of the reserpine (that is 5, 6 and 7 hours after administration of the substance). The substances tested antagonize the ptosis according to the dose. The ED50 of the antagonistic action is evaluated in comparison to the daily reserpine control.

acetic acid writhing = test: Acetic acid writhing test (analgesia); type: in vivo, female albino mice NMRI; settings: Mus musculus, read-out: Analgesic action, acetic acid writhing test ED50
Method: as §1
(b) Writhing test (acetic acid writhing): intraperitoneal injection of 0.2 ml/20 g of body weight of mouse of a 0.75% strength acetic acid solution induces in albino mice a typical syndrome proceeding over the body with dorsal flection, called "writhing". These "writhes" (occurring in the course of the first half hour after administration) are counted over a period of 5 to 20 minutes after administration of acetic acid. The substances tested (administered 30 minutes before the acetic acid injection) cause a reduction in the number of writhing syndromes. The dose which reduces the number thereof by 50%, relative to the daily control, is determined. Literature: Koster, Anderson, de Beer (1959) Fed.Proc. 18, 412.

thermal pain = test: Tail flick test (analgesia); type: in vivo, female albino mice NMRI; settings: Mus musculus; oral; dose which prolongs the reaction time by 50%; mice; read-out: Analgesic action, tail flick test ED50
Method: as §1
(a) Tail flick test: Albino mice are exposed to thermal pain, from a focused heat ray, at the tail root, and the time which elapses before the tail is drawn away is recorded. This time is usually in the range of from 4 to 5 seconds. The substances tested cause a delayed reaction to the thermal pain, that is a reduced thermal pain reaction. The dose which prolongs the reaction time by 50% is determined. Literature: D'Amour, F. E., and Smith, D. L., (1941) J. Pharmacol. Exp. Ther. 72, 74.

[1] = Determination of the lethal effect (acute toxicity); parameters: species or system female albino mice NMRI; settings: mouse, in vivo; oral; mice; observation time 7 days
Method: as §1
The mice were given food (Altromin®) and water ad libitum. The substances to be tested were administered orally as solutions of varying concentration in a volume of from 10 to 20 ml/kg using a stomach tube; 5 animals per dose were kept in Macrolon cages, type II. The observation time was 7 days. […] Literature: Litchfield and Wilkoxon ([…]) J. Pharm. Exp. Therap. 96/2, 99.

[2] = read-out: Antiptotic action, Reserpine antagonism ED50, oral, 5 hours after administration, reserpine 2 mg/kg s.c., mice
[3] = oral, 6 hours after administration, reserpine 2 mg/kg s.c., mice, read-out: Antiptotic action, Reserpine antagonism ED50, 6 hours after administration
[4] = oral, 7 hours after administration, reserpine 2 mg/kg s.c., mice, read-out: Antiptotic action, Reserpine antagonism ED50, 7 hours after administration
[5] = oral, 30 minutes before acetic acid, dose which reduces writhes by 50%, mice
[6] = po, 5 h, read-out: Antiptotic action, Reserpine antagonism ED50, 5 hours after administration
[7] = po, 6 h, read-out: Antiptotic action, Reserpine antagonism ED50, 6 hours after administration
[8] = po, 7 h, read-out: Antiptotic action, Reserpine antagonism ED50, 7 hours after administration

Structure (SMILES) | ED50 (Reserpine ptosis; [2]) | ED50 (Reserpine ptosis; [3]) | ED50 (Reserpine ptosis; [4]) | ED50 (acetic acid writhing; [5]) | ED50 (thermal pain) | ED50 (acetic acid writhing; po) | ED50 (Reserpine ptosis; [6]) | ED50 (Reserpine ptosis; [7]) | ED50 (Reserpine ptosis; [8]) | LD50 at 168 h [1]
CN(C)CCCN1c2ccccc2CCc2ccccc21 [Serial No. 1, Imipramine, reference compound] | 18 mg/kg | 50 mg/kg | 100 mg/kg | > 100 mg/kg | > 50 mg/kg |  |  |  |  | 
CC(C)(C)N1CCC(Oc2ccc([N+](=O)[O-])cc2)(c2ccccc2)CC1 [Serial No. 9, 1-(tert.-Butyl)-4-(4-nitrophenoxy)-4-phenylpiperidine] |  |  |  |  |  | 10 mg/kg |  |  |  | 
CN1CCC(Oc2ccccc2)(c2ccccc2)CC1 [compound 2] |  |  |  |  | 35 mg/kg |  | 2.1 mg/kg | 2.7 mg/kg | 4 mg/kg | 220 mg/kg
CN1CCC(Oc2ccc([N+](=O)[O-])cc2)(c2ccccc2)CC1 [compound 3] |  |  |  |  | 50 mg/kg |  | 0.7 mg/kg | 2 mg/kg | 5.8 mg/kg | 140 mg/kg
CN1CCC(Cc2ccccc2)(Oc2ccc(N)cc2)CC1 [compound 4] | 9.5 mg/kg | 24 mg/kg | 50 mg/kg | 27 mg/kg | 2 mg/kg |  |  |  |  | 180 mg/kg
CN1CCC(Oc2ccc(N)cc2)(c2ccccc2)CC1 [compound 5] |  |  |  |  | 12 mg/kg | 7 mg/kg | 0.7 mg/kg | 3 mg/kg | 10 mg/kg | 160 mg/kg
CN1CCC(Cc2ccccc2)(Oc2ccc([N+](=O)[O-])cc2)CC1 [compound 6] |  |  |  | 35 mg/kg | > 75 mg/kg |  |  |  |  | 290 mg/kg
CN1CCC(Cc2ccccc2)(Oc2ccccc2)CC1 [compound 7] |  |  |  | 27 mg/kg | 55 mg/kg |  |  |  |  | 300 mg/kg
c1ccc(OC2(c3ccccc3)CCNCC2)cc1 [compound 8] | ~25 mg/kg | > 50 mg/kg | > 50 mg/kg | 50 mg/kg | 25 mg/kg |  |  |  |  | > 200 mg/kg
CC(=O)Nc1ccc(OC2(c3ccccc3)CCN(C)CC2)cc1 [compound 10] |  |  |  |  | 12.5 mg/kg | 10 mg/kg | < 10 mg/kg | < 10 mg/kg | < 10 mg/kg | 100 to 200 mg/kg
